Tests used:
Assay in all cases: relative viability (nuclei count vs DMSO), 5 days (fraction); higher = more cells survive
[1] = compound: CC1=C(C(=NN1)C)CC2=C(C3=C(S2)N(C(=O)N(C3=O)C)CC(C)C)C(=O)N4C[C@@H](CO4)O + CS(=O)(=O)CCNCc1ccc(-c2ccc3ncnc(Nc4ccc(OCc5cccc(F)c5)c(Cl)c4)c3c2)o1 [Lapatinib] (partner 2 µM)
Outline: (§1)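 Lung cancer cell lines in 1536-well plates got either a single drug or a fixed anchor-drug dose together with five library-drug doses (not always all listed) in √10 steps, by pin tool, on the day after seeding. Nuclei were counted after 5 days, and relative viability is the treated-to-vehicle ratio of nuclei counts. Values are medians of duplicate plates.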

IDH-C35 + Alpelisib = compound: Cc1ccccc1C(C(=O)NC1CCCCC1)N(C(=O)Cn1ccnc1C)c1cccc(F)c1 [IDH-C35] + Cc1nc(NC(=O)N2CCC[C@H]2C(N)=O)sc1-c1ccnc(C(C)(C)C(F)(F)F)c1 [Alpelisib] (partner 2 µM)
Outline: as §1

IDH-C35 + Tozasertib = compound: Cc1ccccc1C(C(=O)NC1CCCCC1)N(C(=O)Cn1ccnc1C)c1cccc(F)c1 [IDH-C35] + Cc1cc(Nc2cc(N3CCN(C)CC3)nc(Sc3ccc(NC(=O)C4CC4)cc3)n2)n[nH]1 [Tozasertib] (partner 0.1 µM)
Outline: as §1

IDH-C35 + Olaparib = compound: Cc1ccccc1C(C(=O)NC1CCCCC1)N(C(=O)Cn1ccnc1C)c1cccc(F)c1 [IDH-C35] + O=C(c1cc(Cc2n[nH]c(=O)c3ccccc23)ccc1F)N1CCN(C(=O)C2CC2)CC1 [Olaparib] (partner 8 µM)
Outline: as §1

Cell Line	relative viability ([1]; first compound 0.0025 µM)	relative viability ([1]; first compound 0.007906 µM)	relative viability ([1]; first compound 0.025 µM)	relative viability ([1]; first compound 0.07906 µM)	relative viability ([1]; first compound 0.25 µM)	relative viability (IDH-C35 + Alpelisib; first compound 0.08 µM)	relative viability (IDH-C35 + Alpelisib; first compound 0.253 µM)	relative viability (IDH-C35 + Alpelisib; first compound 0.8 µM)	relative viability (IDH-C35 + Alpelisib; first compound 2.53 µM)	relative viability (IDH-C35 + Alpelisib; first compound 8 µM)	relative viability (IDH-C35 + Tozasertib; first compound 0.08 µM)	relative viability (IDH-C35 + Tozasertib; first compound 0.253 µM)	relative viability (IDH-C35 + Tozasertib; first compound 0.8 µM)	relative viability (IDH-C35 + Tozasertib; first compound 2.53 µM)	relative viability (IDH-C35 + Tozasertib; first compound 8 µM)	relative viability (IDH-C35 + Olaparib; first compound 0.08 µM)	relative viability (IDH-C35 + Olaparib; first compound 0.253 µM)	relative viability (IDH-C35 + Olaparib; first compound 0.8 µM)	relative viability (IDH-C35 + Olaparib; first compound 2.53 µM)	relative viability (IDH-C35 + Olaparib; first compound 8 µM)
NCI-H661	0.523	0.649	0.464	0.623	0.493	0.589	0.852	0.529	0.689	0.711	0.326	0.358	0.372	0.346	0.355	0.758	0.743	0.738	0.71	0.688
NCI-H727	1.17	0.857	0.781	0.569	0.869	0.536	0.719	0.543	0.582	0.83	0.49	0.61	0.647	0.606	0.558	0.633	0.873	0.705	0.7	0.717
NCI-H838	1.03	1.06	0.907	0.778	0.96	1.03	0.92	0.951	0.93	0.949	0.249	0.276	0.292	0.281	0.234	0.797	0.787	0.779	0.785	0.745
NCI-H1355	1.08	1.11	0.918	0.945	0.943	0.894	0.787	0.801	0.864	0.849	0.538	0.606	0.601	0.526	0.502	0.71	0.755	0.749	0.741	0.73
NCI-H1395	0.941	0.948	0.776	0.839	0.949	1.12	0.889	1.09	1.04	1.05	0.723	0.831	0.735	0.728	0.774	0.436	0.449	0.473	0.463	0.464
NCI-H1437	0.925	0.981	0.738	0.795	0.922	0.961	0.992	0.896	0.933	0.966	0.411	0.443	0.405	0.413	0.366	0.61	0.649	0.609	0.619	0.602
NCI-H1651	0.922	0.971	0.771	0.766	0.833	1.03	0.812	0.937	0.945	1	0.696	0.737	0.643	0.632	0.683	0.173	0.179	0.181	0.166	0.188
NCI-H1666	0.72	0.584	0.734	0.786	0.669	0.974	0.951	0.955	0.986	0.911	0.585	0.752	0.619	0.58	0.536	0.777	0.795	0.721	0.781	0.718

— the supplement of paper PMC10307832
